Here are results for eight molecules from US11230555B2, “Bicyclic RORγ modulators” (Escalier Biosciences B.V., priority 2018, dated 2022).

SMILES strings stand for the structures.

The target of this experiment is T1, RORγt (Homo sapiens, UniProt P51449).
T1 construct: purchased reporter-cell kit
T1 sequence (P51449 269-508 limits assumed): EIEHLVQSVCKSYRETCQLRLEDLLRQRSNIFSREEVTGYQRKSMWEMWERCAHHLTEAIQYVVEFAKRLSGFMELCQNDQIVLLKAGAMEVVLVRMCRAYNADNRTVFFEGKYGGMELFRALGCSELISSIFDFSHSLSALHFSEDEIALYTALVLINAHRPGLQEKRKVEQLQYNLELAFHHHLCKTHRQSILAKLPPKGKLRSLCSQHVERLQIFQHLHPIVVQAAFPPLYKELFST
In words: Gal4 ligand binding assay (RORγt Gal fusion reporter assay). In kind it is cell-based. The settings on record: inverse agonists, luciferase reporter, 24h. In short, it runs like this: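 GAL4-DBD/RORγ(t) fusion stably expressed with a Gal4-UAS luciferase reporter in […] cells, which are constitutively active. Compounds were given as 2× media with 10 points from 60 μM to 3 nM (final DMSO 0.2%) for 24 h at 37° C, 5% CO2. Luminescence was normalized to DMSO control wells.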
In general terms: Reporter assays use an easily measured gene product as a stand-in for the process of interest.
For `Cc1cc(CN2CC3CCC(C2)N3C(=O)C2CCOCC2)ccc1-c1ccc(C(O)(C(F)(F)F)C(F)(F)F)cc1` [Example 43, (3-((4′-(1,1,1,3,3,3-hexafluoro-2-hydroxypropan-2-yl)-2-methyl-[1,1′-biphenyl]-4-yl)methyl)-3,8-diazabicyclo[3.2.1]octan-8-yl)(tetrahydro-2H-pyran-4-yl)methanone], the IC50 lay in the range of 50 to 250 nM. `Cc1cc(C(O)(C(F)(F)F)C(F)(F)F)ccc1-c1cc(F)c(CN2CC3CCC(C2)N3S(C)(=O)=O)cc1C(C)C` [Example 20, 1,1,1,3,3,3-hexafluoro-2-(5′-fluoro-2′-isopropyl-2-methyl-4′-((8-(methylsulfonyl)-3,8-diazabicyclo[3.2.1]octan-3-yl)methyl)-[1,1′-biphenyl]-4-yl)propan-2-ol] gave an IC50 of 50 to 250 nM. The value for `CCc1cc(CN2CC3CCC(C2)N3S(C)(=O)=O)cnc1-c1ccc(C(O)(C(F)(F)F)C(F)(F)F)cc1C` [Example 33, 2-(4-(3-ethyl-5-((8-(methylsulfonyl)-3,8-diazabicyclo[3.2.1]octan-3-yl)methyl)pyridin-2-yl)-3-methylphenyl)-1,1,1,3,3,3-hexafluoropropan-2-ol] was > 250 nM. As for `CCc1cc(CN2[C@@H]3COC[C@H]2CN(S(C)(=O)=O)C3)ccc1-c1ccc(C(O)(C(F)(F)F)C(F)(F)F)cc1` [Example 8, 2-(2′-ethyl-4′-(((1R,5S)-7-(methylsulfonyl)-3-oxa-7,9-diazabicyclo[3.3.1]nonan-9-yl)methyl)-[1,1′-biphenyl]-4-yl)-1,1,1,3,3,3-hexafluoropropan-2-ol], the figure is 50 to 250 nM. As for `OC(c1ccc(-c2ccc(CN3C4CCC3CN(Cc3ccncc3)C4)cc2)cc1)(C(F)(F)F)C(F)(F)F` [Example 2, 1,1,1,3,3,3-hexafluoro-2-(4′-((3-(pyridin-4-ylmethyl)-3,8-diazabicyclo[3.2.1]octan-8-yl)methyl)-[1,1′-biphenyl]-4-yl)propan-2-ol], the figure is > 250 nM. Consider `Cc1cc(CN2CC3CCC(C2)N3S(=O)(=O)Cc2ccccc2)ccc1-c1ccc(C(O)(C(F)(F)F)C(F)(F)F)cc1` [Example 65, 2-(4′-((8-(benzylsulfonyl)-3,8-diazabicyclo[3.2.1]octan-3-yl)methyl)-2′-methyl-[1,1′-biphenyl]-4-yl)-1,1,1,3,3,3-hexafluoropropan-2-ol], for which the IC50 was > 250 nM.

The molecule `OC(c1ccc(-c2ccc(CN3CC4CCC(C3)N4Cc3ccncc3)cc2)cc1)(C(F)(F)F)C(F)(F)F` [Example 1, 1,1,1,3,3,3-hexafluoro-2-(4′-((8-(pyridin-4-ylmethyl)-3,8-diazabicyclo[3.2.1]octan-3-yl)methyl)-[1,1′-biphenyl]-4-yl)propan-2-ol] yielded an IC50 of 50 to 250 nM. As for `COCC(=O)N1C2CCC1CN(Cc1ccc(-c3ccc(C(O)(C(F)(F)F)C(F)(F)F)cc3)c(C)c1)C2` [Example 54, 1-(3-((4′-(1,1,1,3,3,3-hexafluoro-2-hydroxypropan-2-yl)-2-methyl-[1,1′-biphenyl]-4-yl)methyl)-3,8-diazabicyclo[3.2.1]octan-8-yl)-2-methoxyethan-1-one], the figure is 50 to 250 nM.

As usually defined, the IC50 is the point on the concentration scale where inhibition reaches its midpoint.
